Laboratory results reported in publication PMC9338942, “(+)-Usnic acid and its salts, inhibitors of SARS‐CoV‐2, identified by using in silico methods and in vitro assay” (Scientific Reports, 2022).

Experiments:
Test in all cases: microbe, parasite or virus in culture
Assay type in all cases: cell-based
Conditions in all cases: Severe acute respiratory syndrome coronavirus 2, vero cells
[1] = tested on: SARS-CoV-2 Delta var (B.1.617.2)
[2] = tested on: SARS-CoV-2 Beta var (B.1.351)
[3] = tested on: SARS-CoV-2 Alpha var (B.1.1.7)

How did the IC50 [1] turn out when CC(=O)c1c(O)c(C)c(O)c2c1OC1=CC(=O)C(C(C)=O)C(=O)[C@@]12C (single isomer, unassigned; (+)) [(+)-usnic acid] was run?
The IC50 was 7.17 µM.

And the IC50 [2]?
The IC50 was 2.92 µM.

What about the IC50 [3] of the same molecule?
Its IC50 is 6.05 µM.

Which results are given for CCN(CC)CCCC(C)Nc1ccnc2cc(Cl)ccc12 (stereo not drawn) [chloroquine]?
IC50 [1]: 6.22 µM; IC50 [2]: 2.64 µM; IC50 [3]: 6.16 µM

How did the IC50 [1] turn out when Cc1cccc(C)c1OCC(=O)N[C@@H](Cc1ccccc1)[C@@H](O)C[C@H](Cc1ccccc1)NC(=O)[C@H](C(C)C)N1CCCNC1=O [lopinavir] was run?
The IC50 was 15.3 µM.

And the IC50 [2]?
Its IC50 is 11.8 µM.

And the IC50 [3]?
The IC50 was 10.8 µM.

Which results are given for CCC(CC)COC(=O)[C@H](C)N[P@](=O)(OC[C@H]1O[C@@](C#N)(c2ccc3c(N)ncnn23)[C@H](O)[C@@H]1O)Oc1ccccc1 [remdesivir]?
IC50 [1]: 6.48 µM; IC50 [2]: 1.47 µM; IC50 [3]: 2.25 µM
